Data reported in PMC10333884, “Large‐scale phosphomimetic screening identifies phospho‐modulated motif‐based protein interactions” (Molecular Systems Biology, 2023).
Non-standard residues stand in square brackets, D forms with d. Residues, ends and D or L forms follow the SMILES beside them. pT = C[C@@H](OP(=O)(O)O)[C@H](N)C(=O)O

What was measured:
[1] = tested on: bait protein domains; assay: Phosphomimetic ProP-PD selection against the PM_HD2 library (NGS counts, confidence level, PES), any bait; type: binding, human; set-up: Confidence / Max confidence: scale not given here; details: bait ABL1_SH3__P00519_60_121; for Has possible phosphoregulated psite? (PES +2/-2, p<0.01) / Max confidence: hit given as wt version; for Confidence / Promiscuity / Specificity: selection results by peptide
Description: Selections using the PM_HD2 phage library were performed as described previously with minor modification to the original protocol. The corresponding tag protein (either GST or MBP) was first used during negative selections. Selections were run for 4 days. • Bait and tag proteins (10–15 μg in 100 μl PBS) were immobilised in 96‐well MaxiSorb plate (NUNC) o.n. at 4°C. • Escherichia coli OmniMax bacteria were grown in 2YT medium supplemented with tetracycline (100 μg/ml) at 37°C and 200 rpm. • Plates with immobilised bait/tag proteins were blocked with 0.5% BSA in PBS for 1 h at 4°C. • Phage library (10 μl/well) was prepared by diluting 10× with PBS and adding one‐fourth of the volume of PEG/NaCl. For phage precipitation, prepared library was incubated for 10 min on ice followed by centrifugation for 10 min at 10,000 × g at 4°C. Phages were resuspended in 0.5% BSA, 0.05% Tween in PBS. • Plates with tag proteins were washed 4× with 0.05% Tween in PBS, and naïve phage library was added to each well (100 μl/well) and the plates incubated for 1 h at 4°C. • Plates with bait protein were washed 4× with 0.05% Tween in PBS, and nonbound phages were transferred from the tag protein plate and the plates incubated for 1 h at 4°C. • Plates were again washed 5× with 0.05% Tween in PBS, and bound phages were eluted with log‐phase OmniMax bacteria (100 μl/well) by incubating for 30 min at 37°C at 200 rpm. • M13K07 helper phage (10^12 cfu/ml) was added to each well and the plates incubated for 45 min at 37°C at 200 rpm. • Amplification took place o.n. by adding the eluted phages to 1.1 ml 2YT media supplemented with kanamycin (25 μg/ml), carbenicillin (50 μg/ml) and 0.3 μM IPTG in a 96‐deep‐well plate and incubating o.n. at 37°C at 200 rpm. • Bacteria were pelleted by centrifugation for 15 min at 1,700 × g at 4°C. The phage supernatant was pH‐adjusted by the addition of 10× PBS and remaining bacteria heat‐inactivated by incubating for 10 min at 60°C. Selections were repeated as described from (5).
Based on the results from phage pool ELISAs, samples from selection Day 3 and 4 were selected for NGS, as described previously (Benz et al, [2022]). • Peptide coding regions were amplified and dual‐barcoded by PCR. 5 μl of the enriched phage pools (50 μl reactions) and a high‐fidelity phusion polymerase (Roche) were used for the PCR reaction. Amplification was confirmed by running the PCR product on 2% agarose gel with a 50 bp ladder. • PCR products (25 μl) were purified with 25 μl of Mag‐bind Total Pure NGS beads and normalised in the same step by taking 10 μl of each reaction after resuspension (Qiagen Elution buffer: 10 mM Tris‐Cl and 0.1 mM EDTA (pH 8.5)) from the beads. • The samples were cleaned up with a PCR purification kit (Qiagen) and subsequently run on a 2% agarose gel, and bands of the correct size (ca. 200 bp) were purified with the QIAquick Gel extraction Kit (Qiagen). From the columns, samples were eluted with 30 μl TE (10 mM Tris–HCl, 1 mM EDTA. pH 7.5) buffer and quantified with Quant‐iT PicoGreen dsDNA Assay Kit. • Samples were sequenced on MiSeq (MSC 2.5.0.5/RTA 1.18.54) with a 151 nt (Read1) setup using “Version3” chemistry. The Bcl to FastQ conversion was performed using bcl2fastq_v2.20.0.422 from the CASAVA software suite.
The processing of sequencing data was performed as described in Ali et al ([2020]). In brief: Pooled results from ~500 selection experiments were demultiplexed by identifying unique combinations of 5′ and 3′ barcodes, sequences with an average quality score of 20 or more were conserved and their adaptors were trimmed, and DNA sequences translated using in‐house custom Python scripts. A table for each experiment was built containing peptide sequences associated with their sequencing counts. […]

[2] = target: T1, TSG101 UEV (Homo sapiens, UniProt Q99816); assay: FP displacement assay, TSG101 UEV; type: binding; details: for Kd: read-out: KD values ± SEM
T1 construct: TSG101_UEV__Q99816_1_145; made in house; host or cells: Escherichia coli BL21-Gold(DE3)
T1 sequence (Q99816 1-145): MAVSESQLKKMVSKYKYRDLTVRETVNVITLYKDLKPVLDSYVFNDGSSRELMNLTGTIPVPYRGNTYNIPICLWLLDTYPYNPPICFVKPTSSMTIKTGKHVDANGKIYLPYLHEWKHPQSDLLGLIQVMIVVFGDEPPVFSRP
Description: FP experiments were performed as described previously (Kliche et al, [2021]). Shortly, in order to monitor the binding event, FITC‐labelled peptides were used (excitation 495 nm, emission: 535 nm) and the FP signal was recorded in mP on a SpectraMax iD5 Multi‐Mode Microplate Reader (Molecular Devices) by measuring the emitted light in two angels. The measurements were performed at room temperature and prepared in nonbinding black half area 96‐well microplates (Corning®; 50 μl/well). For measuring direct binding, that is saturation curves, a 1:1 dilution series of protein domain (25 μl/well) was generated in 50 mM sodium phosphate buffer pH 7.4 and the measurement performed with 5 nM FITC‐labelled peptide (25 μl/well). The buffer‐corrected values were subsequently plotted with PRISM and fitted to the quadratic equation (Gianni et al, [2005]).
The 1:1 dilution series in this experiment was performed with the unlabelled peptide in 50 mM sodium phosphate buffer pH 7.4, so that each well‐contained unlabelled peptide (25 μl) at a certain concentration and pre‐formed complex (25 μl). The KD values of this indirectly monitored binding event were calculated as described previously (Nikolovska‐Coleska et al, [2004]). All measurements were at least in technical triplicates as well as biological duplicates when indicated. An amplitude shift between repeat measurements in the displacement experiments was occasionally observed due to variations in the protein preparations. If that was the case, the “active” protein concentration was back‐calculated according to the quadratic equation from the saturation curves performed in parallel. By comparing the active protein concentrations in the complex between different protein preparations, the amplitude was normalised.

[3] = probe FITC-HIV2_Gag 5 nM, 50 mM sodium phosphate pH 7.4, room temperature, at least three technical replicates

Compound	Has possible phosphoregulated psite? (PES +2/-2, p<0.01) [1]	Max confidence [1]	Confidence [1]	Promiscuity [1]	Specificity [1]	further results
LTYPQYSPPQPRPGVI	yes	4				
CC(=O)N[C@@H](Cc1c[nH]cn1)C(=O)N[C@@H](CO)C(=O)NCC(=O)N[C@@H](CC(N)=O)C(=O)N[C@H](C(=O)N[C@H](C(=O)N1CCC[C@H]1C(=O)N[C@H](C(=O)N[C@@H](C)C(=O)N1CCC[C@H]1C(=O)N1CCC[C@H]1C(=O)N[C@@H](Cc1ccc(O)cc1)C(=O)N[C@@H](CC(C)C)C(=O)N[C@@H](CCC(N)=O)C(=O)N[C@@H](CCC(=O)O)C(=O)N[C@@H](CO)C(N)=O)[C@@H](C)O)[C@@H](C)O)C(C)C [PIP4P2_17–32 wt] (Ac-HSGNVTPTAPPYLQES-NH2)						Kd [2, 3]: 14 ± 1 µM
PSYSPPDTSPANRSFV			2	1	1	
H3COC-QSIAREPS(pS/E)APSIPTPY-NH2 [PDCD6IP711–725 pS, phosphorylated PDCD6IP 711-725 peptide]						KD values ± SEM [2, 3]: n.b.
PATSPPKEPPQLEALQ			2	2	0.9898	
SPPRPPPPPPLLGTVS	yes	3				
CC(=O)N[C@@H](Cc1c[nH]cn1)C(=O)N[C@@H](CO)C(=O)NCC(=O)N[C@@H](CC(N)=O)C(=O)N[C@H](C(=O)N[C@H](C(=O)N1CCC[C@H]1C(=O)N[C@H](C(=O)N[C@@H](C)C(=O)N1CCC[C@H]1C(=O)N1CCC[C@H]1C(=O)N[C@@H](Cc1ccc(O)cc1)C(=O)N[C@@H](CC(C)C)C(=O)N[C@@H](CCC(N)=O)C(=O)N[C@@H](CCC(=O)O)C(=O)N[C@@H](CO)C(N)=O)[C@@H](C)O)[C@@H](C)OP(=O)(O)O)C(C)C [PIP4P2_17–32 pS] (Ac-HSGNV[pT]PTAPPYLQES-NH2)						IC50 ([2]; Fig 4B, TSG101 UEV, technical triplicates, read-out: IC50 values of displacement curves, with SEM): 34 ± 10 µM; Kd [2, 3]: 16 ± 3 µM
DAPPHYPPPSTAAAEP			3	4	0.8807	
PATSPPKTPPQLEALQ	yes	3				
